Data reported in BindingDB's records for doi:10.1016/j.bioorg.2016.11.007 (University of Karachi, 2017).

How the values were obtained:
Thymidine phosphorylase [1] = target: T1, Thymidine phosphorylase (Escherichia coli (strain K12), UniProt P07650); experiment: Thymidine Phosphorylase Inhibition Assay; conditions: 30 °C
Experimental: TP inhibition assay was performed spectrophotometrically in 96-well plate. […] The total reaction volume was 200 μL. 20 μL of TP enzyme (0.058 unit/well) was incubated with 10 μL of test compounds (0.5 mM) for 10 min at 30 C. […] Every experiment was run in triplicate.

Thymidine phosphorylase [2] = target: T1, Thymidine phosphorylase; experiment: Kinetic Assay; conditions: 30 °C

T1 sequence (P07650 whole entry): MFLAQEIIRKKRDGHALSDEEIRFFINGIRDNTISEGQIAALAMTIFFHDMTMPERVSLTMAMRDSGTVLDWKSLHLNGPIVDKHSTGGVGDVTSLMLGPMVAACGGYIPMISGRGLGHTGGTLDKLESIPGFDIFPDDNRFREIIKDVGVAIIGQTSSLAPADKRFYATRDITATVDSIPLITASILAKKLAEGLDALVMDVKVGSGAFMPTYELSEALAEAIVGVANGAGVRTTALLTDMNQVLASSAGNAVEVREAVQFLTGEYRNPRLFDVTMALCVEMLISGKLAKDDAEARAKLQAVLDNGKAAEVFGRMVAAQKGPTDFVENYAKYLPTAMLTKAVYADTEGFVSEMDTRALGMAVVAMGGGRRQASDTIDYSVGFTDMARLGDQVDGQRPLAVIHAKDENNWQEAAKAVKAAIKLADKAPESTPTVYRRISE

Row | SMILES | IC50 (Thymidine phosphorylase [1]) [µM] | Ki (Thymidine phosphorylase [2]) [µM]
1 | COc1ccccc1C(=O)OC[C@H]1O[C@@H](n2cc(C)c(=O)[nH]c2=O)C[C@@H]1O [5'-O-(2''-Methoxybenzoyl)-thymidine (11)] | 90 | –
2 | Cc1cn([C@H]2C[C@H](OC(=O)c3ccc(Cl)cc3Cl)[C@@H](COC(=O)c3ccc(Cl)cc3Cl)O2)c(=O)[nH]c1=O [5'-O-(2'',4''-Dichlorobenzoyl)-thymidine-3'-O-2'',4''-dichlorobenzoate (13)] | 146 | –
3 | Cc1cn([C@H]2C[C@H](O)[C@@H](COC(=O)c3cccc(Br)c3)O2)c(=O)[nH]c1=O [5'-O-(3''-Bromobenzoyl)-thymidine (15)] | 33.3 | 11.4
4 | COc1ccc(C(=O)OC[C@H]2O[C@@H](n3cc(C)c(=O)[nH]c3=O)C[C@@H]2O)cc1 [5'-O-(4''-Methoxybenzoyl)-thymidine (10)] | 18.8 | 12.8
5 | Cc1ccc(C(=O)OC[C@H]2O[C@@H](n3cc(C)c(=O)[nH]c3=O)C[C@@H]2O)cc1 [5'-O-(4''-Methylbenzoyl)-thymidine (4)] | 18.5 | 12.5
6 | Cc1cn([C@H]2C[C@H](OC(=O)c3ccc(Br)cc3)[C@@H](COC(=O)c3ccc(Br)cc3)O2)c(=O)[nH]c1=O [5'-O-(4''-Bromobenzoyl)-thymidine-3'-O-4''-bromobenzoate (14)] | 7.5 | 7.81
